ChEMBL document CHEMBL4270577, “Synthesis, anticancer activity and molecular modeling studies of 1,2,4-triazole derivatives as EGFR inhibitors” (Eur J Med Chem, 2018)

Experiments:
ACHN = assay: Growth inhibition of human ACHN cells at 10 uM incubated for 48 hrs by sulforhodamine B assay relative to control; format: functional; conditions: read-out: GI
NCI-H23 = assay: Growth inhibition of human NCI-H23 cells at 10 uM incubated for 48 hrs by sulforhodamine B assay relative to control; format: functional; conditions: NCI-H23, 48 h, read-out: GI
HCC 2998 = assay: Growth inhibition of human HCC2998 cells at 10 uM incubated for 48 hrs by sulforhodamine B assay relative to control; format: functional; conditions: HCC 2998, 48 h, read-out: GI
CCRF-CEM = assay: Growth inhibition of human CCRF-CEM cells at 10 uM incubated for 48 hrs by sulforhodamine B assay relative to control; format: functional; conditions: read-out: GI
HL-60(TB) = assay: Growth inhibition of human HL-60(TB) cells at 10 uM incubated for 48 hrs by sulforhodamine B assay relative to control; format: functional; conditions: HL-60, 48 h, read-out: GI
NCI-H460 = assay: Growth inhibition of human NCI-H460 cells at 10 uM incubated for 48 hrs by sulforhodamine B assay relative to control; format: functional; conditions: NCI-H460, 48 h, read-out: GI
PANC-1 = assay: Antiproliferative activity against human PANC1 cells after 48 hrs by propidium iodide staining-based fluorometric analysis; format: functional, cell-based; conditions: PANC-1, 48 h
K562 = assay: Growth inhibition of human K562 cells at 10 uM incubated for 48 hrs by sulforhodamine B assay relative to control; format: functional; conditions: K562, 48 h, read-out: GI
SF-539 = assay: Growth inhibition of human SF539 cells at 10 uM incubated for 48 hrs by sulforhodamine B assay relative to control; format: functional; conditions: SF-539, 48 h, read-out: GI
U-251 = assay: Growth inhibition of human U251 cells at 10 uM incubated for 48 hrs by sulforhodamine B assay relative to control; format: functional; conditions: U-251, 48 h, read-out: GI
SNB-19 = assay: Growth inhibition of human SNB19 cells at 10 uM incubated for 48 hrs by sulforhodamine B assay relative to control; format: functional; conditions: SNB-19, 48 h, read-out: GI
Malme-3M = assay: Growth inhibition of human MALME-3M cells at 10 uM incubated for 48 hrs by sulforhodamine B assay relative to control; format: functional; conditions: read-out: GI
SN12C = assay: Growth inhibition of human SN12C cells at 10 uM incubated for 48 hrs by sulforhodamine B assay relative to control; format: functional; conditions: read-out: GI
PC-3 = assay: Growth inhibition of human PC3 cells at 10 uM incubated for 48 hrs by sulforhodamine B assay relative to control; format: functional; conditions: PC-3, 48 h, read-out: GI
MCF7 = assay: Growth inhibition of human MCF7 cells at 10 uM incubated for 48 hrs by sulforhodamine B assay relative to control; format: functional; conditions: MCF7, 48 h, read-out: GI
HOP-92 = assay: Growth inhibition of human HOP92 cells at 10 uM incubated for 48 hrs by sulforhodamine B assay relative to control; format: functional; conditions: HOP-92, 48 h, read-out: GI
SW-620 = assay: Growth inhibition of human SW620 cells at 10 uM incubated for 48 hrs by sulforhodamine B assay relative to control; format: functional; conditions: SW-620, 48 h, read-out: GI
UACC-62 = assay: Growth inhibition of human UACC62 cells at 10 uM incubated for 48 hrs by sulforhodamine B assay relative to control; format: functional; conditions: UACC-62, 48 h, read-out: GI
NCI-H226 = assay: Growth inhibition of human NCI-H226 cells at 10 uM incubated for 48 hrs by sulforhodamine B assay relative to control; format: functional; conditions: NCI-H226, 48 h, read-out: GI
NCI/ADR-RES = assay: Growth inhibition of human NCI/ADR-RES cells at 10 uM incubated for 48 hrs by sulforhodamine B assay relative to control; format: functional; conditions: read-out: GI
SF-295 = assay: Growth inhibition of human SF295 cells at 10 uM incubated for 48 hrs by sulforhodamine B assay relative to control; format: functional; conditions: SF-295, 48 h, read-out: GI
786-0 = assay: Growth inhibition of human 786-0 cells at 10 uM incubated for 48 hrs by sulforhodamine B assay relative to control; format: functional; conditions: 786-0, 48 h, read-out: GI
M14 = assay: Growth inhibition of human M14 cells at 10 uM incubated for 48 hrs by sulforhodamine B assay relative to control; format: functional; conditions: M14, 48 h, read-out: GI
NCI-H322M = assay: Growth inhibition of human NCI-H322M cells at 10 uM incubated for 48 hrs by sulforhodamine B assay relative to control; format: functional; conditions: read-out: GI
MDA-MB-468 = assay: Growth inhibition of human MDA-MB-468 cells at 10 uM incubated for 48 hrs by sulforhodamine B assay relative to control; format: functional; conditions: MDA-MB-468, 48 h, read-out: GI
RXF 393 = assay: Growth inhibition of human RXF393 cells at 10 uM incubated for 48 hrs by sulforhodamine B assay relative to control; format: functional; conditions: RXF 393, 48 h, read-out: GI
MDA-MB-231 = assay: Growth inhibition of human MDA-MB-231/ATCC cells at 10 uM incubated for 48 hrs by sulforhodamine B assay relative to control; format: functional; conditions: MDA-MB-231, 48 h, read-out: GI
[1] = target: Epidermal growth factor receptor (Homo sapiens, UniProt P00533); assay: Inhibition of His6-tagged recombinant EGFR cytoplasmic domain (645 to 1186 residues) (unknown origin) expressed in baculovirus infected Sf9 insect cells preincubated for 10 mins followed by ATP-MgCl2 addition and measured after 1 hr by DELFIA/time-resolved fluorometric analysis
IGROV-1 = assay: Growth inhibition of human IGROV1 cells at 10 uM incubated for 48 hrs by sulforhodamine B assay relative to control; format: functional; conditions: IGROV-1, 48 h, read-out: GI
MOLT-4 = assay: Growth inhibition of human MOLT4 cells at 10 uM incubated for 48 hrs by sulforhodamine B assay relative to control; format: functional; conditions: MOLT-4, 48 h, read-out: GI
NCI-H522 = assay: Growth inhibition of human NCI-H522 cells at 10 uM incubated for 48 hrs by sulforhodamine B assay relative to control; format: functional; conditions: NCI-H522, 48 h, read-out: GI
HCT-116 = assay: Growth inhibition of human HCT116 cells at 10 uM incubated for 48 hrs by sulforhodamine B assay relative to control; format: functional; conditions: HCT-116, 48 h, read-out: GI
DU-145 = assay: Growth inhibition of human DU145 cells at 10 uM incubated for 48 hrs by sulforhodamine B assay relative to control; format: functional; conditions: DU-145, 48 h, read-out: GI
OVCAR-4 = assay: Growth inhibition of human OVCAR4 cells at 10 uM incubated for 48 hrs by sulforhodamine B assay relative to control; format: functional; conditions: OVCAR-4, 48 h, read-out: GI
HOP-62 = assay: Growth inhibition of human HOP62 cells at 10 uM incubated for 48 hrs by sulforhodamine B assay relative to control; format: functional; conditions: HOP-62, 48 h, read-out: GI

Chain of Epidermal growth factor receptor (P00533 whole entry, the tested form may be a part): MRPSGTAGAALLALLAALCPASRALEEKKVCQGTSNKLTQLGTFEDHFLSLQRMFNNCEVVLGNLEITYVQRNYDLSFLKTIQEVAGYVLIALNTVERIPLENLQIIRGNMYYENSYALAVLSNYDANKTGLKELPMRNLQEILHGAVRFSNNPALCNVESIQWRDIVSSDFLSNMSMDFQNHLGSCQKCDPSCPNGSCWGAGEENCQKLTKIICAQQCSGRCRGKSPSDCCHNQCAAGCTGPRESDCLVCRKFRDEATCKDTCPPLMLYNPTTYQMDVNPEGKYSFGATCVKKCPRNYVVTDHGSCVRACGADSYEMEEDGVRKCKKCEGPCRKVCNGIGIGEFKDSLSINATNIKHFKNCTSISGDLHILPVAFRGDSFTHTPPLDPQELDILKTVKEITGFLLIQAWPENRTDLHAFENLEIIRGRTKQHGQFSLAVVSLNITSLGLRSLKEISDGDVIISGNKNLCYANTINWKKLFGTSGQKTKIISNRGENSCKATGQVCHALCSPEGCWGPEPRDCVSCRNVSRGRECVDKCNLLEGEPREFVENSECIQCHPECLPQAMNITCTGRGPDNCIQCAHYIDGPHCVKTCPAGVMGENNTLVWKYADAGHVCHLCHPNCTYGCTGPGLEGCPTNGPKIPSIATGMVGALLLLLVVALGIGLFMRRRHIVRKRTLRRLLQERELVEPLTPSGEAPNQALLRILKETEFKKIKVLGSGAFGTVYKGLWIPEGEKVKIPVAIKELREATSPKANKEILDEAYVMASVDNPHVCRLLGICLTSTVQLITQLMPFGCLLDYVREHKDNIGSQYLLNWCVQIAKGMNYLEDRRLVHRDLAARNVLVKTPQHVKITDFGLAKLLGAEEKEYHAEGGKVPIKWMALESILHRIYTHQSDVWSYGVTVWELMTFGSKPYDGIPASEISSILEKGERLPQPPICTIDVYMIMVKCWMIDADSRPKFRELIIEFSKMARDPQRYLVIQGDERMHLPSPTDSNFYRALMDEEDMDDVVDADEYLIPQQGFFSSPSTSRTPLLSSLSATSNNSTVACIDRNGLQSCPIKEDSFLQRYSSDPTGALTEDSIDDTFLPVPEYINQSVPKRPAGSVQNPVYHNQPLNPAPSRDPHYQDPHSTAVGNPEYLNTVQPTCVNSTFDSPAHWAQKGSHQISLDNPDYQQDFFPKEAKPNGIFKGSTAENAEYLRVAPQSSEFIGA

| SMILES | inhibition of growth at 10 µM (ACHN) | inhibition of growth at 10 µM (NCI-H23) | inhibition of growth at 10 µM (HCC 2998) | inhibition of growth at 10 µM (CCRF-CEM) | inhibition of growth at 10 µM (HL-60(TB)) | inhibition of growth at 10 µM (NCI-H460) | IC50 (PANC-1) | inhibition of growth at 10 µM (K562) | inhibition of growth at 10 µM (SF-539) | inhibition of growth at 10 µM (U-251) | inhibition of growth at 10 µM (SNB-19) | inhibition of growth at 10 µM (Malme-3M) | inhibition of growth at 10 µM (SN12C) | inhibition of growth at 10 µM (PC-3) | inhibition of growth at 10 µM (MCF7) | inhibition of growth at 10 µM (HOP-92) | inhibition of growth at 10 µM (SW-620) | inhibition of growth at 10 µM (UACC-62) | inhibition of growth at 10 µM (NCI-H226) | inhibition of growth at 10 µM (NCI/ADR-RES) | also measured |
| --- | --- | --- | --- | --- | --- | --- | --- | --- | --- | --- | --- | --- | --- | --- | --- | --- | --- | --- | --- | --- | --- |
| Clc1ccc(-c2cn3nc(-c4ccccc4)nc3s2)cc1 | 49% | 33% | 10% | 6% | 15% | 37% | 5.2 µM | 24% | 21% | 25% | 57% | 10% | 22% | 31% | 35% | 53% | 13% | 18% | 32% | 34% | inhibition of growth at 10 µM (SF-295): 21%; inhibition of growth at 10 µM (786-0): 53%; inhibition of growth at 10 µM (M14): 15%; inhibition of growth at 10 µM (NCI-H322M): 20%; inhibition of growth at 10 µM (MDA-MB-468): 57%; inhibition of growth at 10 µM (RXF 393): 39%; inhibition of growth at 10 µM (MDA-MB-231): 57%; IC50 [1]: 7.2 µM; inhibition of growth at 10 µM (IGROV-1): 55%; inhibition of growth at 10 µM (MOLT-4): 8%; inhibition of growth at 10 µM (NCI-H522): 29%; inhibition of growth at 10 µM (HCT-116): 41%; inhibition of growth at 10 µM (DU-145): 14%; inhibition of growth at 10 µM (OVCAR-4): 60%; inhibition of growth at 10 µM (HOP-62): 40% |
| COc1ccc(-c2nc3sc(-c4ccccc4)cn3n2)cc1 | 32% | 28% | 22% | 35% | 32% | 65% | 4.5 µM | 76% | 24% | 21% | 34% | 32% | 37% | 33% | 74% | 32% | 64% | 42% | 23% | 66% | inhibition of growth at 10 µM (SF-295): 38%; inhibition of growth at 10 µM (786-0): 11%; inhibition of growth at 10 µM (M14): 71%; inhibition of growth at 10 µM (NCI-H322M): 14%; inhibition of growth at 10 µM (MDA-MB-468): 81%; inhibition of growth at 10 µM (RXF 393): 24%; inhibition of growth at 10 µM (MDA-MB-231): 53%; IC50 [1]: 5.6 µM; inhibition of growth at 10 µM (IGROV-1): 52%; inhibition of growth at 10 µM (MOLT-4): 49%; inhibition of growth at 10 µM (NCI-H522): 70%; inhibition of growth at 10 µM (HCT-116): 60%; inhibition of growth at 10 µM (DU-145): 16%; inhibition of growth at 10 µM (OVCAR-4): 37%; inhibition of growth at 10 µM (HOP-62): 49% |
